Reference: patent US20160159789A1, “SUBSTITUTED PYRAZOLOPYRIDINES” (BAYER PHARMA AKTIENGESELLSCHAFT, priority 2013, published 2016)

Biological target: T1, human full-length MKNK1 (Homo sapiens, UniProt Q9BUB5, T385D)
T1 construct: purchased Carna Biosciences 02-145; host or cells: insect cells (baculovirus expression system)
Experiment: MKNK1 kinase high ATP assay (TR-FRET)
Type: biochemical
Conditions: high ATP (2 mM final), 15 min preincubation with enzyme, GST-MKNK1 (T344D)
Protocol: MKNK1-inhibitory activity at high ATP of compounds of the present invention after their preincubation with MKNK1 was quantified employing the TR-FRET-based MKNK1 high ATP assay as described in the following paragraphs.
A recombinant fusion protein of Glutathione-S-Transferase (GST, N-terminally) and human full-length MKNK1 (amino acids 1-424 and T344D of accession number BAA 19885.1), expressed in insect cells using baculovirus expression system and purified via glutathione sepharose affinity chromatography, was purchased from Carna Biosciences (product no 02-145) and used as enzyme. As substrate for the kinase reaction the biotinylated peptide biotin-Ahx-IKKRKLTRRKSLKG (C-terminus in amide form) was used, which can be purchased e.g. from the company Biosyntan (Berlin-Buch, Germany).
For the assay 50 nL of a 100 fold concentrated solution of the test compound in DMSO was pipetted into a black low volume 384 well microtiter plate (Greiner Bio-One, Frickenhausen, Germany), 2 μL of a solution of MKNK1 in aqueous assay buffer [50 mM HEPES pH 7.5, 5 mM MgCl2, 1.0 mM dithiothreitol, 0.005% (v/v) Nonidet-P40 (Sigma)] was added and the mixture was incubated for 15 min at 22° C. to allow pre-binding of the test compounds to the enzyme before the start of the kinase reaction. Then the kinase reaction was started by the addition of 3 μL of a solution of adenosine-tri-phosphate (ATP, 3.3 mM=> final conc. in the 5 μL assay volume is 2 mM) and substrate (0.1 μM=> final conc. in the 5 μL assay volume is 0.06 μM) in assay buffer and the resulting mixture was incubated for a reaction time of 30 min at 22° C. The concentration of MKNK1 was adjusted depending of the activity of the enzyme lot and was chosen appropriate to have the assay in the linear range, typical concentrations were in the range of 0.003 μg/mL. The reaction was stopped by the addition of 5 μL of a solution of TR-FRET detection reagents (5 nM streptavidine-XL665 [Cisbio Bioassays, Codolet, France] and 1 nM anti-ribosomal protein S6 (pSer236)-antibody from Invitrogen [#44921G] and 1 nM LANCE EU-W1024 labeled ProteinG [Perkin-Elmer, product no. AD0071]) in an aqueous EDTA-solution (100 mM EDTA, 0.1% (w/v) bovine serum albumin in 50 mM HEPES pH 7.5).
The resulting mixture was incubated for 1 h at 22° C. to allow the formation of complex between the phosphorylated biotinylated peptide and the detection reagents. Subsequently the amount of phosphorylated substrate was evaluated by measurement of the resonance energy transfer from the Eu-chelate to the streptavidine-XL. Therefore, the fluorescence emissions at 620 nm and 665 nm after excitation at 350 nm were measured in a TR-FRET reader, e.g. a Rubystar (BMG Labtechnologies, Offenburg, Germany) or a Viewlux (Perkin-Elmer). The ratio of the emissions at 665 nm and at […] was taken as the measure for the amount of phosphorylated substrate. The data were normalised (enzyme reaction without inhibitor=0% inhibition, all other assay components but no enzyme=100% inhibition).

T1 sequence (Q9BUB5 1-424 isoform Q9BUB5-2 T344D): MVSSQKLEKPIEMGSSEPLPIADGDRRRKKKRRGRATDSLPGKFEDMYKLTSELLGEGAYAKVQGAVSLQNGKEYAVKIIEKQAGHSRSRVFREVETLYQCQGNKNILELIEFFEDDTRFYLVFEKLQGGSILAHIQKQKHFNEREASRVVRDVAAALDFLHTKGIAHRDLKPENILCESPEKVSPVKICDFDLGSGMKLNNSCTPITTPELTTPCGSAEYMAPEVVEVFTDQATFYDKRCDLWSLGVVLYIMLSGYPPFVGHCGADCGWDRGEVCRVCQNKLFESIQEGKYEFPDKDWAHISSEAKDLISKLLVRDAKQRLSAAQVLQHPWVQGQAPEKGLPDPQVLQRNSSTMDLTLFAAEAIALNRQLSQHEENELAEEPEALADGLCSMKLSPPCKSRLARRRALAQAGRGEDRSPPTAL

Row | IC50 | SMILES
1 | 10.4 nM | CC(C)NC(=O)C1CCc2c(sc3ncnc(Nc4cnc5[nH]ncc5c4)c23)C1 (racemic) [Example 23, (RS)—N-(Propan-2-yl)-4-(1H-pyrazolo[3,4-b]pyridin-5-ylamino)-5,6,7,8-tetrahydro[1]benzothieno[2,3-d]pyrimidine-7-carboxamide]
2 | 10.7 nM | CC(C)NC(=O)C1CCc2c(sc3ncnc(Nc4cc5cn[nH]c5cn4)c23)C1 (racemic) [Example 24, (RS)—N-(Propan-2-yl)-4-(1H-pyrazolo[3,4-c]pyridin-5-ylamino)-5,6,7,8-tetrahydro[1]benzothieno[2,3-d]pyrimidine-7-carboxamide]
3 | 13.8 nM | CN1CCN(C(=O)C2CCc3c(sc4ncnc(Nc5cnc6[nH]ncc6c5)c34)C2)CC1 (racemic) [Example 25, (RS)-(4-Methylpiperazin-1-yl)[4-(1H-pyrazolo[3,4-b]pyridin-5-ylamino)-5,6,7,8-tetrahydro[1]benzothieno[2,3-d]pyrimidin-7-yl]methanone]
4 | 38.2 nM | CN1CCN(C(=O)C2CCc3c(sc4ncnc(Nc5cc6cn[nH]c6cn5)c34)C2)CC1 (racemic) [Example 26, (RS)-(4-Methylpiperazin-1-yl)[4-(1H-pyrazolo[3,4-c]pyridin-5-ylamino)-5,6,7,8-tetrahydro[1]benzothieno[2,3-d]pyrimidin-7-yl]methanone]
5 | 20.3 nM | CN(C)C(=O)C1CCc2c(sc3ncnc(Nc4cnc5[nH]ncc5c4)c23)C1 (racemic) [Example 27, (RS)—N,N-Dimethyl-4-(1H-pyrazolo[3,4-b]pyridin-5-ylamino)-5,6,7,8-tetrahydro[1]benzothieno[2,3-d]pyrimidine-7-carboxamide]
6 | 9.8 nM | CN(C)C(=O)C1CCc2c(sc3ncnc(Nc4cc5cn[nH]c5cn4)c23)C1 (racemic) [Example 28, (RS)—N,N-Dimethyl-4-(1H-pyrazolo[3,4-c]pyridin-5-ylamino)-5,6,7,8-tetrahydro[1]benzothieno[2,3-d]pyrimidine-7-carboxamide]
7 | 24.7 nM | CC(C)NC(=O)C1CCc2[nH]c3ncnc(Nc4cnc5[nH]ncc5c4)c3c2C1 (racemic) [Example 29, (RS)—N-(Propan-2-yl)-4-(1H-pyrazolo[3,4-b]pyridin-5-ylamino)-6,7,8,9-tetrahydro-5H-pyrimido[4,5-b]indole-6-carboxamide]
8 | 50.7 nM | CN(C)C(=O)C1CCc2[nH]c3ncnc(Nc4cnc5[nH]ncc5c4)c3c2C1 (racemic) [Example 30, (RS)—N,N-Dimethyl-4-(1H-pyrazolo[3,4-b]pyridin-5-ylamino)-6,7,8,9-tetrahydro-5H-pyrimido[4,5-b]indole-6-carboxamide]
9 | 59.1 nM | CN(C)C(=O)C1CCc2[nH]c3ncnc(Nc4cc5cn[nH]c5cn4)c3c2C1 (racemic) [Example 31, (RS)—N,N-Dimethyl-4-(1H-pyrazolo[3,4-c]pyridin-5-ylamino)-6,7,8,9-tetrahydro-5H-pyrimido[4,5-b]indole-6-carboxamide]
10 | 49 nM | CN1CCN(C(=O)C2CCc3[nH]c4ncnc(Nc5cnc6[nH]ncc6c5)c4c3C2)CC1 (racemic) [Example 32, (RS)-(4-Methylpiperazin-1-yl)[4-(1H-pyrazolo[3,4-b]pyridin-5-ylamino)-6,7,8,9-tetrahydro-5H-pyrimido[4,5-b]indol-6-yl]methanone]
11 | 90.4 nM | CN1CCN(C(=O)C2CCc3[nH]c4ncnc(Nc5cc6cn[nH]c6cn5)c4c3C2)CC1 (racemic) [Example 33, (RS)-(4-Methylpiperazin-1-yl)[4-(1H-pyrazolo[3,4-c]pyridin-5-ylamino)-6,7,8,9-tetrahydro-5H-pyrimido[4,5-b]indol-6-yl]methanone]
12 | 28.1 nM | c1nc(Nc2cnc3[nH]ncc3c2)c2cc[nH]c2n1 [Example 1, N-(7H-Pyrrolo[2,3-d]pyrimidin-4-yl)-1H-pyrazolo[3,4-b]pyridin-5-amine]
13 | 23.8 nM | c1nc(Nc2cc3cn[nH]c3cn2)c2cc[nH]c2n1 [Example 2, N-(7H-Pyrrolo[2,3-d]pyrimidin-4-yl)-1H-pyrazolo[3,4-c]pyridin-5-amine]
14 | 25.9 nM | Cc1c[nH]c2ncnc(Nc3cnc4[nH]ncc4c3)c12 [Example 3, N-(5-Methyl-7H-pyrrolo[2,3-d]pyrimidin-4-yl)-1H-pyrazolo[3,4-b]pyridin-5-amine]
15 | 4.2 nM | Cc1c[nH]c2ncnc(Nc3cc4cn[nH]c4cn3)c12 [Example 4, N-(5-Methyl-7H-pyrrolo[2,3-d]pyrimidin-4-yl)-1H-pyrazolo[3,4-c]pyridin-5-amine]
16 | 12.2 nM | CCc1c[nH]c2ncnc(Nc3cnc4[nH]ncc4c3)c12 [Example 5, N-(5-Ethyl-7H-pyrrolo[2,3-d]pyrimidin-4-yl)-1H-pyrazolo[3,4-b]pyridin-5-amine]
17 | 7.3 nM | CCc1c[nH]c2ncnc(Nc3cc4cn[nH]c4cn3)c12 [Example 6, N-(5-Ethyl-7H-pyrrolo[2,3-d]pyrimidin-4-yl)-1H-pyrazolo[3,4-c]pyridin-5-amine]
18 | 28.9 nM | CCc1[nH]c2ncnc(Nc3cnc4[nH]ncc4c3)c2c1C [Example 7, N-(6-Ethyl-5-methyl-7H-pyrrolo[2,3-d]pyrimidin-4-yl)-1H-pyrazolo[3,4-b]pyridin-5-amine]
19 | 11.5 nM | CCc1[nH]c2ncnc(Nc3cc4cn[nH]c4cn3)c2c1C [Example 8, N-(6-Ethyl-5-methyl-7H-pyrrolo[2,3-d]pyrimidin-4-yl)-1H-pyrazolo[3,4-c]pyridin-5-amine]
20 | 3 nM | CCOC(=O)c1cc2c(Nc3cnc4[nH]ncc4c3)ncnc2[nH]1 [Example 9, Ethyl 4-(1H-pyrazolo[3,4-b]pyridin-5-ylamino)-7H-pyrrolo[2,3-d]pyrimidine-6-carboxylate]
21 | 6.6 nM | CCOC(=O)c1cc2c(Nc3cc4cn[nH]c4cn3)ncnc2[nH]1 [Example 10, Ethyl 4-(1H-pyrazolo[3,4-c]pyridin-5-ylamino)-7H-pyrrolo[2,3-d]pyrimidine-6-carboxylate]
22 | 24.1 nM | O=C(O)c1cc2c(Nc3cc4cn[nH]c4cn3)ncnc2[nH]1 [Example 11, 4-(1H-Pyrazolo[3,4-c]pyridin-5-ylamino)-7H-pyrrolo[2,3-d]pyrimidine-6-carboxylic acid]
23 | 5 nM | CCOC(=O)c1[nH]c2ncnc(Nc3cnc4[nH]ncc4c3)c2c1Br [Example 12, Ethyl 5-bromo-4-(1H-pyrazolo[3,4-b]pyridin-5-ylamino)-7H-pyrrolo[2,3-d]pyrimidine-6-carboxylate]
24 | 2.8 nM | O=C(O)c1[nH]c2ncnc(Nc3cc4cn[nH]c4cn3)c2c1Br [Example 14, 5-Bromo-4-(1H-pyrazolo[3,4-c]pyridin-5-ylamino)-7H-pyrrolo[2,3-d]pyrimidine-6-carboxylic acid]
25 | 28.8 nM | FC(F)(F)c1c[nH]c2ncnc(Nc3cnc4[nH]ncc4c3)c12 [Example 15, N-[5-(Trifluoromethyl)-7H-pyrrolo[2,3-d]pyrimidin-4-yl]-1H-pyrazolo[3,4-b]pyridin-5-amine]
26 | 52.9 nM | FC(F)(F)c1c[nH]c2ncnc(Nc3cc4cn[nH]c4cn3)c12 [Example 16, N-[5-(Trifluoromethyl)-7H-pyrrolo[2,3-d]pyrimidin-4-yl]-1H-pyrazolo[3,4-c]pyridin-5-amine]
27 | 32.2 nM | OCc1c[nH]c2ncnc(Nc3cnc4[nH]ncc4c3)c12 [Example 17, [4-(1H-Pyrazolo[3,4-b]pyridin-5-ylamino)-7H-pyrrolo[2,3-d]pyrimidin-5-yl]methanol]
28 | 11.1 nM | CN(C)C(=O)c1cc2c(Nc3cc4cn[nH]c4cn3)ncnc2[nH]1 [Example 18, N,N-Dimethyl-4-(1H-pyrazolo[3,4-c]pyridin-5-ylamino)-7H-pyrrolo[2,3-d]pyrimidine-6-carboxamide]
29 | 5.8 nM | O=C(c1cc2c(Nc3cc4cn[nH]c4cn3)ncnc2[nH]1)N1CCCC1 [Example 19, [4-(1H-Pyrazolo[3,4-c]pyridin-5-ylamino)-7H-pyrrolo[2,3-d]pyrimidin-6-yl](pyrrolidin-1-yl)methanone]
30 | 7.8 nM | O=C(c1cc2c(Nc3cc4cn[nH]c4cn3)ncnc2[nH]1)N1CCCCC1 [Example 20, Piperidin-1-yl[4-(1H-pyrazolo[3,4-c]pyridin-5-ylamino)-7H-pyrrolo[2,3-d]pyrimidin-6-yl]methanone]
